Experimental data taken from US5648378A, “2-iminochromene derivatives as inhibitors of protein tyrosine kinase” (Research Corporation Technologies, Inc., priority 1995, dated 1997).
Values after ≈ are worked out from the molar mass of the structure shown. “Also recorded” adds a separate entry of the source.

Legend:
p60^c-src = target: T1, p60^c-src (Homo sapiens, UniProt P12931); assay: kinase assay, purified p60c-src, poly [Glu,Tyr](4:1) substrate; type: biochemical; conditions: for IC50, p60^c-src: purified kinase, poly [Glu,Tyr](4:1) substrate; for potency relative to the hydroxylated parent compound (in words): hydroxymethyl versus hydroxy N-phenyl analogue
T1 construct: purchased Upstate Biotechnology Inc
T1 sequence (P12931 whole entry): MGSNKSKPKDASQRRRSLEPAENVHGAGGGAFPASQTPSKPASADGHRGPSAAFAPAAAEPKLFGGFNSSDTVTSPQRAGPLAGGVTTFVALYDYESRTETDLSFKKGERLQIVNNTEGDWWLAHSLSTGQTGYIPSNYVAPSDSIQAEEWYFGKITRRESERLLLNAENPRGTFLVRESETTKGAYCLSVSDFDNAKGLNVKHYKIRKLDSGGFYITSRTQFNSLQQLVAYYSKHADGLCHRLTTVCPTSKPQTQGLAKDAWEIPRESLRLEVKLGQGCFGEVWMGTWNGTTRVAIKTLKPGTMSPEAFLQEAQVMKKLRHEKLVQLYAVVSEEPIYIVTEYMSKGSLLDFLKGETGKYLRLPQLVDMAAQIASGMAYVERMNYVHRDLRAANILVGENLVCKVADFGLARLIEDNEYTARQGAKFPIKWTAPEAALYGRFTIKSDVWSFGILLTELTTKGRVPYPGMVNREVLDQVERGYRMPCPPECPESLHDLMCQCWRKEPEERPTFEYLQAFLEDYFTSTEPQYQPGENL
Protocol: (§1) Purified p60^c-scr and Src-family kinases p56^lck, p56^lyn, and p55^fyn were obtained from Upstate Biotechnology Inc. Kinase assays were performed as described by A. Gezit, J. Med.

p56^lyn = target: T2, p56^lyn (Homo sapiens, UniProt P07948); assay: kinase assay, p56lyn; type: biochemical; conditions: poly [Glu,Tyr](4:1) substrate
T2 construct: purchased Upstate Biotechnology Inc
T2 sequence (P07948 whole entry, species assumed): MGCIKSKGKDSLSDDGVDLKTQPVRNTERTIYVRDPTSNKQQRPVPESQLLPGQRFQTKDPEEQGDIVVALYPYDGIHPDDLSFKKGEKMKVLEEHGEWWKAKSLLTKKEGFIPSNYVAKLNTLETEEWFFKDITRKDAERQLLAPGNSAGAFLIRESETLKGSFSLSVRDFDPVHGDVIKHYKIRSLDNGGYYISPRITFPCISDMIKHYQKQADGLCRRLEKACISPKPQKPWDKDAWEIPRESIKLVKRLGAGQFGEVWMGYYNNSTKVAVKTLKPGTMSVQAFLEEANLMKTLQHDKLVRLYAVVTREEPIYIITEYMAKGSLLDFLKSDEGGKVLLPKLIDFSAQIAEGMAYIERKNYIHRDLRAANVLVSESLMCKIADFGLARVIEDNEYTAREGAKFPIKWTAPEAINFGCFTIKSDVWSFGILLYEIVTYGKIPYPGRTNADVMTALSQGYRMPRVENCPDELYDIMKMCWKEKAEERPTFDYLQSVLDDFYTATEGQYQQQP
Protocol: as §1

HL-60 cells = assay: cell growth inhibition, HL-60 promyelocytic leukemia; type: cell-based; conditions: Homo sapiens, HL-60, 72 h; 3 days, Trypan Blue viable cell count
Protocol: (§2) The source of the cancer cell lines were: HL-60, HT-29, and BT-20, from American Type Culture Collection, Rockville, Maryland; A-1 from Dr. M. H. Freedman, MG-63, from Dr. M. Hurley, and human fibroblast from Dr. R. Zeff. Cells were grown in the culture treated with or without various compounds for 3 days. Cells (except BT-20) were then recovered and treated with Trypan Blue and the number of viable cells counted. For BT-20 cells, a new rapid and simple method using Alamar Blue Assay was used, as described by S. A. Ahmed et al., J. Immunol. Meth., 170, 211 (1994). The symbol i on the Table indicates "not
(§3) As shown on Table 3, several compounds of formula (I) were tested for their ability to inhibit the growth of human cancer cells including promyelocytic leukemia HL-60 cells (S. J. Collins et al., Blood, 70, 1233 (1987)); acute lymphocytic leukemia A-1 cells, (S. Kamel-Reid et al., Leukemia, 6, 8 (1992)); human osteosarcoma MG-63, (A. Pirskanen et al., J. Bone and Mineral Res., 1635 (1994)); human breast carcinoma BT-20 (G. G. Castles et al., Cancer Res., 58, 5934 (1992)); and human colon adenocarcinoma HT-29 cells (R. Garcia et al., Oncogene, 6, 1983 (1991)).

A-1 cells = assay: cell growth inhibition, A-1 acute lymphocytic leukemia; type: cell-based; conditions: Homo sapiens, 72 h; 3 days, Trypan Blue viable cell count
Protocol: as §2

BT-20 = assay: cell growth inhibition, BT-20 breast carcinoma (Alamar Blue); type: cell-based; conditions: Homo sapiens, BT-20, 72 h, 3 days, Alamar Blue Assay
Protocol: as §2, §3

p56^lck = target: T3, p56^lck (Homo sapiens, UniProt P06239); assay: kinase assay, p56lck; type: biochemical; conditions: poly [Glu,Tyr](4:1) substrate
T3 construct: purchased Upstate Biotechnology Inc
T3 sequence (P06239 whole entry, species assumed): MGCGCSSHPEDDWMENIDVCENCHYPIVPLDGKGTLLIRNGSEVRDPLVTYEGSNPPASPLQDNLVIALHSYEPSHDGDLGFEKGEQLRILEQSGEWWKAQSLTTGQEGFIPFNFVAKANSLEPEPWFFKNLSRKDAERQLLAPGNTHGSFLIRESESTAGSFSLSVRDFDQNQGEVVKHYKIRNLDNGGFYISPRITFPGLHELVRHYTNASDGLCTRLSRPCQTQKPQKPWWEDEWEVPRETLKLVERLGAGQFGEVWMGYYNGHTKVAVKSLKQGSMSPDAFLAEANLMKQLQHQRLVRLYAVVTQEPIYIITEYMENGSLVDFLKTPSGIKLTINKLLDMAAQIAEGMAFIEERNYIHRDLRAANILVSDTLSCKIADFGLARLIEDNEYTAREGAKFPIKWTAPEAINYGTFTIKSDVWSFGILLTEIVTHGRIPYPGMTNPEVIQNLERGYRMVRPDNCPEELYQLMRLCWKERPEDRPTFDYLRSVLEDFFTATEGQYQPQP
Protocol: as §1

p55^fyn = assay: kinase assay, p55fyn; type: biochemical; conditions: poly [Glu,Tyr](4:1) substrate
Protocol: as §1

MG-63 = assay: cell growth inhibition, MG-63 osteosarcoma; type: cell-based; conditions: Homo sapiens, MG-63, 72 h; 3 days, Trypan Blue viable cell count
Protocol: as §2, §3

HT-29 cells = assay: cell growth inhibition, HT-29 colon adenocarcinoma; type: cell-based; conditions: Homo sapiens, HT-29, 72 h; 3 days, Trypan Blue viable cell count
Protocol: as §2, §3

[1] = tested on: human cancer cells (HL-60, A-1, MG-63, BT-20, HT-29); assay: inhibition of growth of human cancer cell lines, overall comparison; type: cell-based; conditions: 9TA, 18TA compared with e.g. 9TO, 18TO
Protocol: as §2, §3

Human fibroblasts cells = assay: cell growth inhibition, human fibroblasts; type: cell-based; conditions: for IC50: Homo sapiens, Fibroblast, 72 h, 3 days, Trypan Blue viable cell count
Protocol: as §2

melanoma = conditions: 50 mg/day; Thornes et al. (1994); cited from earlier work

Row | Compound | IC50, p60^c-src (p60^c-src) [µg/mL] | IC50 (HL-60 cells) [µg/mL] | IC50 (A-1 cells) [µg/mL] | IC50 (BT-20) [µg/mL] | IC50, p55^fyn (p55^fyn) [µg/mL] | IC50, p56^lck (p56^lck) [µg/mL] | IC50 (HT-29 cells) [µg/mL] | also measured
1 | N=c1oc2ccc(O)cc2cc1C(=O)Nc1cccc(O)c1 [Compound 7TA] | 1.3 (≈ 4.39 µM) | 6.5 (≈ 21.9 µM) | 4.5 (≈ 15.2 µM) |  |  |  |  | IC50 (p56^lyn): > 33.8 µM
2 | N=c1oc2ccc(O)cc2cc1C(=O)Nc1ccc(O)cc1 [Compound 7T] | 3.2 (≈ 10.8 µM) | 4.2 (≈ 14.2 µM) | 3 (≈ 10.1 µM) | 4.5 (≈ 15.2 µM) |  |  |  | 
3 | N=c1oc2cc(O)ccc2cc1C(=O)Nc1cccc(O)c1 [Compound 8TA] | 9 (≈ 30.4 µM) | 3.3 (≈ 11.1 µM) |  |  |  |  |  | IC50 (p56^lyn): > 33.8 µM
4 | N=c1oc2cc(O)ccc2cc1C(=O)Nc1ccccc1O [Compound 8TO] | 0.6 (≈ 2.03 µM) | 8 (≈ 27 µM) |  |  |  |  |  | 
5 | N=c1oc2cc(O)ccc2cc1C(=O)Nc1ccc(O)cc1 [Compound 8T] | 1.2 (≈ 4.05 µM) | 5 (≈ 16.9 µM) | 5 (≈ 16.9 µM) | 14 (≈ 47.3 µM) |  |  |  | 
6 | N=c1oc2c(O)cccc2cc1C(=O)Nc1cccc(CO)c1 [Compound 9TABA] | 2.5 (≈ 8.06 µM) |  | 11 (≈ 35.4 µM) |  | 3 (≈ 9.67 µM) |  |  | potency relative to the hydroxylated parent compound (in words) (p60^c-src; p60^c-src): not more potent; IC50 (p56^lck): 64.5 µM; IC50 (MG-63): > 20 µg/mL
7 | N=c1oc2c(O)cccc2cc1C(=O)Nc1ccccc1CO [Compound 9TOBA] | 1.8 (≈ 5.8 µM) | 6 (≈ 19.3 µM) |  |  |  |  |  | potency relative to the hydroxylated parent compound (in words) (p60^c-src; p60^c-src): much more potent; IC50 (MG-63): 5 µg/mL (≈ 16.1 µM)
8 | CC(=O)c1cccc(NC(=O)c2cc3ccc(O)c(O)c3oc2=N)c1 [Compound 18ACTA] | 3 (≈ 8.87 µM) |  | 15 (≈ 44.3 µM) |  |  |  |  | IC50, p56^lyn (p56^lyn): 10 µg/mL (≈ 29.6 µM)
9 | N=c1oc2c(O)c(O)ccc2cc1C(=O)Nc1cccc(CO)c1 [Compound 18TABA] | 5 (≈ 15.3 µM) | 2.5 (≈ 7.66 µM) | 2.5 (≈ 7.66 µM) |  | > 20 |  |  | potency relative to the hydroxylated parent compound (in words) (p60^c-src; p60^c-src): not more potent; IC50, p56^lyn (p56^lyn): 20 µg/mL (≈ 61.3 µM)
10 | N=c1oc2c(O)c(O)ccc2cc1C(=O)Nc1ccccc1CO [Compound 18TOBA] | 0.9 (≈ 2.76 µM) | 6 (≈ 18.4 µM) | > 20 |  | > 20 | 5 (≈ 15.3 µM) |  | potency relative to the hydroxylated parent compound (in words) (p60^c-src; p60^c-src): much more potent
11 | O=c1ccc2ccccc2o1 [coumarin] |  |  |  |  |  |  |  | effect against melanoma (in words) (melanoma): effective against melanoma

Second part, led by results:

Row | IC50, p60^c-src (p60^c-src) [µg/mL] | IC50 (HL-60 cells) [µg/mL] | IC50 (A-1 cells) [µg/mL] | IC50 (BT-20) [µg/mL] | IC50, p55^fyn (p55^fyn) [µg/mL] | IC50, p56^lck (p56^lck) [µg/mL] | IC50 (HT-29 cells) [µg/mL] | Compound | also measured
12 | 0.035 (≈ 0.118 µM) | 10 (≈ 33.8 µM) | 6 (≈ 20.3 µM) |  |  | 0.62 (≈ 2.09 µM) | 20 (≈ 67.5 µM) | N=c1oc2c(O)cccc2cc1C(=O)Nc1cccc(O)c1 [Compound 9TA] | inhibition of p60^c-src kinase (in words) (p60^c-src): strong inhibitory effect; inhibition of cancer cell growth (in words) [1]: not as potent
13 |  | 1.5 (≈ 5.06 µM) | 1.9 (≈ 6.41 µM) |  | > 20 | 1.2 (≈ 4.05 µM) | 4 (≈ 13.5 µM) | N=c1oc2c(O)cccc2cc1C(=O)Nc1ccccc1O [Compound 9TO] | inhibition of p60^c-src kinase (in words) (p60^c-src): relatively weak activity
14 |  | 2.5 (≈ 8.44 µM) |  | 7 (≈ 23.6 µM) | > 20 | 0.62 (≈ 2.09 µM) | 4 (≈ 13.5 µM) | N=c1oc2c(O)cccc2cc1C(=O)Nc1ccc(O)cc1 [Compound 9T] | IC50, p56^lyn (p56^lyn): 20 µg/mL (≈ 67.5 µM); IC50 (MG-63): 1.25 µg/mL (≈ 4.22 µM)
15 |  | 7.5 (≈ 24.2 µM) |  | > 20 |  |  |  | COc1ccc2cc(C(=O)Nc3ccc(O)cc3)c(=N)oc2c1 [Compound 15T] | fold less active than 8T (p60^c-src; p60^c-src, versus 8T): 8 fold
16 | 12.5 (≈ 40.3 µM) | 5 (≈ 16.1 µM) |  | > 20 |  | 7.5 (≈ 24.2 µM) |  | COc1ccc2oc(=N)c(C(=O)Nc3ccc(O)cc3)cc2c1 [Compound 16T] | fold less active than 7T (p60^c-src; p60^c-src, versus 7T): 4 fold
17 |  | > 20 | 17 (≈ 57.4 µM) |  | > 20 |  |  | N=c1oc2c(O)c(O)ccc2cc1C(=O)Nc1ccccc1 [Compound 18AN] | inhibition of p60^c-src kinase (in words) (p60^c-src): inactive; inhibition of cancer cell growth (in words) [1]: less active
18 | 0.225 (≈ 0.721 µM) | 9 (≈ 28.8 µM) | 20 (≈ 64 µM) |  | > 20 | 20 (≈ 64 µM) | > 20 | N=c1oc2c(O)c(O)ccc2cc1C(=O)Nc1cccc(O)c1 [Compound 18TA] | inhibition of p60^c-src kinase (in words) (p60^c-src): strong inhibitory effect; fold more potent than 18AN (p60^c-src; p60^c-src, versus 18AN): 88 fold; IC50, p56^lyn (p56^lyn): 18 µg/mL (≈ 57.6 µM); inhibition of cancer cell growth (in words) [1]: not as potent
19 | 12 (≈ 38.4 µM) | 2 (≈ 6.4 µM) | 2 (≈ 6.4 µM) |  | > 20 | 20 (≈ 64 µM) | 15 (≈ 48 µM) | N=c1oc2c(O)c(O)ccc2cc1C(=O)Nc1ccccc1O [Compound 18TO] | inhibition of p60^c-src kinase (in words) (p60^c-src): relatively weak activity
20 | 3.6 (≈ 11.5 µM) | 3.5 (≈ 11.2 µM) | 8 (≈ 25.6 µM) | 7.2 (≈ 23.1 µM) | > 20 | 5 (≈ 16 µM) | 20 (≈ 64 µM) | N=c1oc2c(O)c(O)ccc2cc1C(=O)Nc1ccc(O)cc1 [Compound 18T] | 
21 | 1.25 (≈ 4 µM) | 2.5 (≈ 8.01 µM) | 15 (≈ 48 µM) | > 20 |  | 3.75 (≈ 12 µM) | 10 (≈ 32 µM) | N=c1oc2cc(O)cc(O)c2cc1C(=O)Nc1cccc(O)c1 [Compound 19TA] | IC50, p56^lyn (p56^lyn): 5 µg/mL (≈ 16 µM); inhibition of growth of human fibroblast cells (in words) (Human fibroblasts cells): not effective; IC50 (Human fibroblasts cells): > 20 µg/mL; IC50 (MG-63): 5 µg/mL (≈ 16 µM)
22 | 2.1 (≈ 6.72 µM) | 5 (≈ 16 µM) | 2.5 (≈ 8.01 µM) | > 20 |  |  | 0.625 (≈ 2 µM) | N=c1oc2cc(O)cc(O)c2cc1C(=O)Nc1ccccc1O [Compound 19TO] | inhibition of growth of human fibroblast cells (in words) (Human fibroblasts cells): not effective; IC50 (Human fibroblasts cells): > 20 µg/mL; IC50 (MG-63): 2.5 µg/mL (≈ 8.01 µM)
23 | 0.2 (≈ 0.64 µM) | 1 (≈ 3.2 µM) | 1 (≈ 3.2 µM) |  |  | 2 (≈ 6.4 µM) | 2.5 (≈ 8.01 µM) | N=c1oc2cc(O)cc(O)c2cc1C(=O)Nc1ccc(O)cc1 [Compound 19T] | fold more potent than the parent compound 25T (p60^c-src; p60^c-src, versus 25T): 200 fold; IC50, p56^lyn (p56^lyn): 5 µg/mL (≈ 16 µM); inhibition of growth of human fibroblast cells (in words) (Human fibroblasts cells): not effective; IC50 (Human fibroblasts cells): > 20 µg/mL
24 |  | > 10 |  | 10 (≈ 35.7 µM) |  |  |  | N=c1oc2ccccc2cc1C(=O)Nc1ccc(O)cc1 [Compound 25T, 3-(N-4-hydroxyphenyl)carbamoyl-2-iminochromene] | inhibition of p60^c-src kinase (in words) (p60^c-src): poorly inhibits; also recorded: inactive; inhibition of cancer cell growth (in words) [1]: less active
25 | 10 (≈ 35.7 µM) |  |  |  |  |  |  | N=c1oc2ccccc2cc1C(=O)Nc1cccc(O)c1 [Compound 25TA] | 
26 | 1.3 (≈ 4.19 µM) |  | 12 (≈ 38.7 µM) |  |  |  |  | COc1cccc2cc(C(=O)Nc3cccc(O)c3)c(=N)oc12 [Compound 32TA] | 
